# Source: patent US11999727B2 (Tango Therapeutics, Inc., priority 2020, dated 2024)
# Like-named read-outs stand apart in the source and are kept apart here.
# What was measured:
# PRMT5 [1] = target: T1, PRMT5 (Homo sapiens, UniProt O14744); experiment: PRMT5 biochemical IC50 assay with SAM as cofactor; details: PRMT5, SAM as cofactor; read-out: SAM IC50
# T1 construct: purchased Viva (custom protein)
# [2] = system: HAP1 MTAP-intact cell line; experiment: SDMA in-cell western assay, HAP1 MTAP-intact; assay type: cell-based; details: Homo sapiens
# Summary of the method: (§1)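 Isogenic HAP1 pair: the MTAP-intact line expresses endogenous MTAP, and the deleted line is MTAP-null. Symmetric dimethylarginine was detected by in-cell western and IC50 values derived for each line.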
# PRMT5 [3] = target: T1, PRMT5; experiment: PRMT5 biochemical IC50 assay with no cofactor; details: PRMT5, no cofactor; read-out: No Cofactor/rel IC50
# Text: Table 1 indicates IC50 values (μM) against PRMT5 for exemplary compounds in the presence of SAM as cofactor, with no cofactor, and with MTA as cofactor, respectively (columns 4-6). […] Ki values can be calculated from the IC50 values as described in the Examples section. As detailed in the Examples section, for the assay performed in the presence of SAM, IC50=Ki×1.5 (Ki=IC50/1.5).
# [4] = system: HAP1 MTAP-deleted cell line; experiment: Viability assay, MTAP-deleted cell line; assay type: cell-based; details: Homo sapiens
# Text: Table 1 additionally indicates IC50 values in a viability assay for the MTAP-deleted cell line (column 10), indicating the effect of treatment with compound on cell survival.
# PRMT5 [5] = target: T1, PRMT5; experiment: PRMT5 biochemical IC50 assay with MTA as cofactor; details: PRMT5, MTA as cofactor; read-out: MTA IC50
# [6] = system: HAP1 MTAP-deleted cell line; experiment: SDMA in-cell western assay, HAP1 MTAP-deleted; assay type: cell-based; details: for IC50: Homo sapiens; for MTAP intact/deleted ratio: IC50 ratio HAP1 MTAP-intact vs HAP1 MTAP-deleted, SDMA in-cell western
# Summary of the method: as §1
# [7] = HAP1, SDMA in-cell western, HAP1 MTAP-intact, read-out: MTAP HAP1 intact IC50
# [8] = HAP1, viability assay, MTAP-deleted cell line, read-out: HAP1 MTAP deleted viability
# [9] = HAP1, SDMA in-cell western, HAP1 MTAP-deleted, read-out: HAP1 MTAP deleted IC50
# T1 sequence (O14744 whole entry): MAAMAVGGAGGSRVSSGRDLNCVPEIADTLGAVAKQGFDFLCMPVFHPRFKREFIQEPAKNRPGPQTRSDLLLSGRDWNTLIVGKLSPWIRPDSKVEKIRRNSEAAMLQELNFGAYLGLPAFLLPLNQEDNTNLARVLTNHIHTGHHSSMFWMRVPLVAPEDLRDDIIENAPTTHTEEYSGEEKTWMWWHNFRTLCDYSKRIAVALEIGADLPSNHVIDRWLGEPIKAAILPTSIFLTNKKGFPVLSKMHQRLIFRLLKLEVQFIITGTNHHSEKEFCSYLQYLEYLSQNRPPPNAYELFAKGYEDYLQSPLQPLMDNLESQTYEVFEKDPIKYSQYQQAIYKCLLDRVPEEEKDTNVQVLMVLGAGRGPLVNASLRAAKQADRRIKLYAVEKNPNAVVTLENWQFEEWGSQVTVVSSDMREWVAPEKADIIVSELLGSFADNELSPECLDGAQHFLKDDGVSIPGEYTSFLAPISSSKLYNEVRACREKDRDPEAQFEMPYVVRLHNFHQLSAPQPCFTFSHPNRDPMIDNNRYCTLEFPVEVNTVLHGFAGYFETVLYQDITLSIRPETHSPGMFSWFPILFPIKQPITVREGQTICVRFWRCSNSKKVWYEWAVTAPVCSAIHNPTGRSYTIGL
# T1 sequence (Q9BQA1 whole entry partner): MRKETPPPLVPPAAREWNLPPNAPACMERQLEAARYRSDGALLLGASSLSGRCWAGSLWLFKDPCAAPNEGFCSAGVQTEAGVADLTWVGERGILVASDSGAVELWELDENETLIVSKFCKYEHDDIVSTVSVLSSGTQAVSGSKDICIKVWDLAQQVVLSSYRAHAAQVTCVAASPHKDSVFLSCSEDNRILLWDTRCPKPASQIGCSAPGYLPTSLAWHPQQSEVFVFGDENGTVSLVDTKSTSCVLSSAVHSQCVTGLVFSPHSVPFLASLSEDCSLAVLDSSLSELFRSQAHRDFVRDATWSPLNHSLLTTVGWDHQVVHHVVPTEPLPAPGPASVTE
SMILES,IC50 (PRMT5 [1]) [nM],"IC50 [2, 7] [nM]",IC50 (PRMT5 [3]) [nM],"IC50 [4, 8] [nM]",IC50 (PRMT5 [5]) [nM],"IC50 [6, 9] [nM]",MTAP intact/deleted ratio [6],"IC50 ([2]; HAP1, read-out: MTAP HAP1 intact IC50) [nM]","IC50 ([4]; HAP1, read-out: HAP1 MTAP deleted viability) [nM]","IC50 ([6]; HAP1, read-out: HAP1 MTAP deleted IC50) [nM]"
"C[C@H]1CC[C@H](c2ccc3sc(CCN(C)C)nc3c2)N(C(=O)C(=O)Nc2cncc(C(N)=O)c2)C1 (single isomer, unassigned) [Compound 1128]",> 500,> 1000,> 500,1000 to 10000,> 500,100 to 1000,,,,
"CCc1cc(NC(=O)C(=O)N2C[C@@H](C)CC[C@@H]2c2ccc3sc([C@H]4CCN(C)C(C)(C)C4)nc3c2)cnc1N (single isomer, unassigned) [Compound 1129]",50 to 500,< 100,< 50,< 1000,< 50,< 100,B (an IC50 ratio greater than or equal to 3 fold but lower than 10 fold),,,
"CO[C@@H]1C[C@@H](c2ccc3scnc3c2)N(C(=O)C(=O)Nc2cnc(N)c(C)c2)C[C@@H]1C (single isomer, unassigned) [Compound 1130]",> 500,> 1000,> 500,> 10000,> 500,> 1000,,,,
"CCc1cc(NC(=O)C(=O)N2CC(C)CCC2c2ccc(N3CCC4C(CCCN4C)C3)cc2)cnc1N (single isomer, unassigned) [Compound 1132]",50 to 500,100 to 1000,< 50,< 1000,< 50,< 100,A (an IC50 ratio greater than or equal to 10 fold),,,
"CCc1cc(NC(=O)C(=O)N2C[C@H](C)CC[C@H]2c2ccc3sc(CCN(C)C)nc3c2)cnc1N (single isomer, unassigned) [Compound 1133]",> 500,> 1000,> 500,1000 to 10000,> 500,> 1000,,,,
"Cc1cc(NC(=O)C(=O)N2C[C@@H](C)CC[C@@H]2c2ccc3sc([C@H]4CCN(C)C(C)(C)C4)nc3c2)cnc1C (single isomer, unassigned) [Compound 1135]",< 50,100 to 1000,< 50,< 1000,< 50,< 100,A (an IC50 ratio greater than or equal to 10 fold),,,
"CCc1cc(NC(=O)C(=O)N2C[C@@H](C)CC[C@@H]2c2ccc3sc([C@H]4CCN(C)C(=O)C4)nc3c2)cnc1N (single isomer, unassigned) [Compound 1136]",50 to 500,100 to 1000,< 50,< 1000,< 50,< 100,A (an IC50 ratio greater than or equal to 10 fold),,,
"CCc1cc(NC(=O)C(=O)N2C[C@H](C)[C@H](OC)C[C@H]2c2ccc3scnc3c2)cnc1N (single isomer, unassigned) [Compound 1138]",> 500,> 1000,> 500,1000 to 10000,> 500,100 to 1000,,,,
"CCc1cc(NC(=O)C(=O)N2C[C@@H](C)CC[C@@H]2c2ccc(N3CC[C@@H]4CCN(C)C[C@@H]4C3)cc2)cnc1N (single isomer, unassigned) [Compound 1144]",50 to 500,100 to 1000,< 50,< 1000,< 50,< 100,A (an IC50 ratio greater than or equal to 10 fold),,,
"COc1ncc(NC(=O)C(=O)N2C[C@@H](C)CC[C@@H]2c2ccc3sc(CCN(C)C)nc3c2)cc1C(N)=O (single isomer, unassigned) [Compound 1146]",< 50,< 100,< 50,< 1000,< 50,< 100,A (an IC50 ratio greater than or equal to 10 fold),,,
"CCc1cc(NC(=O)C(=O)N2C[C@H](C)CC[C@H]2c2ccc(N3CCOC4(CN(C)C4)C3)cc2)cnc1N (single isomer, unassigned) [Compound 1150]",> 500,> 1000,> 500,> 10000,> 500,> 1000,,,,
"C[C@H]1CC[C@H](c2ccc3sncc3c2)N(C(=O)C(=O)Nc2cnc(N)c(C3CC3)c2)C1 (single isomer, unassigned) [Compound 1153]",50 to 500,,< 50,,< 50,,A (an IC50 ratio greater than or equal to 10 fold),100 to 1000,< 1000,< 100
"C[C@H]1CC[C@H](c2ccc3sc(C4CCN(C)CC4)nc3c2)N(C(=O)C(=O)Nc2cnc(N)c([C@@H]3CCOC3)c2)C1 (single isomer, unassigned) [Compound 1154]",< 50,< 100,< 50,< 1000,< 50,< 100,A (an IC50 ratio greater than or equal to 10 fold),,,
"C[C@@H]1CC[C@@H](c2ccc3nn(CCN(C)C)cc3c2)N(C(=O)C(=O)Nc2cnc(N)c(C3CC3)c2)C1 (single isomer, unassigned) [Compound 1156]",< 50,< 100,< 50,< 1000,< 50,< 100,A (an IC50 ratio greater than or equal to 10 fold),,,
"Cc1cc(NC(=O)C(=O)N2C[C@@H](C)[C@@H](CC(C)C)C[C@@H]2c2ccc3scnc3c2)cnc1N (single isomer, unassigned) [Compound 1157]",> 500,> 1000,> 500,> 10000,> 500,> 1000,,,,
"CO[C@@H]1C[C@@H](c2ccc3scnc3c2)N(C(=O)C(=O)Nc2cncc(C(N)=O)c2)C[C@@H]1C (single isomer, unassigned) [Compound 1161]",50 to 500,100 to 1000,< 50,< 1000,< 50,< 100,A (an IC50 ratio greater than or equal to 10 fold),,,
"Cc1cc(NC(=O)C(=O)N2C[C@@H](C)CC[C@@H]2c2ccc3snc(C)c3c2)cnc1N (single isomer, unassigned) [Compound 1166]",50 to 500,< 100,< 50,< 1000,< 50,< 100,B (an IC50 ratio greater than or equal to 3 fold but lower than 10 fold),,,
"Cc1nc2cc([C@@H]3CC[C@H](C)CN3C(=O)C(=O)Nc3cnc(N)c(C)c3)ccc2o1 (single isomer, unassigned) [Compound 1170]",50 to 500,100 to 1000,< 50,< 1000,< 50,< 100,A (an IC50 ratio greater than or equal to 10 fold),,,
"CCc1cc(NC(=O)C(=O)N2[C@@H](C)CCC[C@H]2c2ccc3sc(C4CCN(C)CC4)nc3c2)cnc1N (single isomer, unassigned) [Compound 1173]",50 to 500,< 100,< 50,< 1000,< 50,< 100,A (an IC50 ratio greater than or equal to 10 fold),,,
"COCCc1nc2cc([C@H]3CC[C@H](C)CN3C(=O)C(=O)Nc3cnc(N)c(C4CC4)c3)ccc2s1 (single isomer, unassigned) [Compound 1176]",> 500,> 1000,> 500,> 10000,> 500,> 1000,,,,
